Test results: patent publication US20240139157A1, “Novel Tubulin Polymerization Inhibitor for Cancer Therapy” (Board of Regents, The University of Texas System, priority 2022, published 2024)

Columns and labels:
MDA-MB-231 cells = assay: Annexin V assay by flow cytometry (phosphatidylserine externalization); type: cell-based
Source text: Phosphatidylserine externalization is a cellular process that involves the translocation of phosphatidylserine from the inner leaflet of the cell's plasma membrane to the outer leaflet. The externalization of phosphatidylserine is recognized by other cells as a signal for engulfment and removal without causing inflammation or damage.
The plot illustrated in FIG. 3 was generated by Annexin V assay analyzed by flow cytometry showing the externalization of the phospholipid phosphatidylserine (PS). Treatment of MDA-MB-231 cells with PTA-1 at concentrations of 10 μM and 20 μM for 24 hours induces apoptosis as shown by PS externalization. Each bar represents the average of at least three technical replicates.

[1] = system: microtubules and microfilaments of MDA-MB-231 cells; assay: Cytoskeleton imaging by fluorescence microscopy; type: cell-based; details: 10 μM, 4 hours
Source text: FIG. 8 illustrates alterations in cytoskeletal structures of MDA-MB-231 cells in response to treatment with PTA-1 in accordance with an illustrative embodiment. To test the hypothesis that PTA-1 acts as a tubulin inhibitor, we tested if it could cause alterations in the microtubule organization of MDA-MB-231 cells.
Disruption of cellular microtubules of MDA-MB-231 cells can be assessed by imaging microtubules using fluorescence microscopy.

[2] = system: HS27 human fibroblasts (non-cancerous); assay: Differential nuclear staining cytotoxicity assay, HS27; type: cell-based; details: HS27 non-cancerous cell line vs cancerous lines
Source text: (§1) In this illustrative example, PTA-1 can be identified through compound screening by performing differential nuclear staining assay on acute lymphoblastic leukemia CEM T-cell line. Differential nuclear staining assay measures cell viability using Hoechst 33342 fluorescent stain and propidium iodide dyes that stain all nuclei and dead cell nuclei.
(§2) With reference now to FIG. 2, a table for evaluating cytotoxicity of PTA-1 on different cell lines is depicted in accordance with an illustrative embodiment. In FIG. 2, PTA-1 with chemical structure 100 shown in FIG. 1 is tested to determine cytotoxic activities of PTA-1 on different cell lines.
(§3) In table 200, column 202 indicates the type of cells that are used to test cytotoxic activities of PTA-1, column 204 indicates the cell line used to test cytotoxic activities of PTA-1, column 206 indicates the CC50 values for different cell lines, and column 208 indicates the length of time that different cell lines are exposed to PTA-1. […]
(§4) In this illustrative example, the selective cytotoxicity index value is used to determine if a compound has activity preferentially toward cancer cells. […] The selective cytotoxicity index (SCI) value is calculated by dividing the CC50 of the compound in non-cancerous cells (HS27 human fibroblasts or MCF-10A breast epithelial cells) by the CC50 in cancer cells. […]

[3] = system: caspase-3 in MDA-MB-231 cells; assay: Caspase-3 activation, NucView 488 substrate, flow cytometry; type: cell-based
Source text: FIG. 4 depicts a plot illustrating PTA-1 induced caspase-3 activation in accordance with an illustrative embodiment. In FIG. 4, the induction of apoptosis from PTA-1 is corroborated by detecting the activation of the enzyme caspase-3. The fluorogenic reagent NucView 488 caspase-3 substrate was used to detect the activation of caspase 3 via flow cytometry. […] The average of 3 replicates is represented by each bar.
Caspase enzymes are activated during apoptosis and eventually result in DNA cleavage. In this example, caspase-3 is activated after exposure of the MDA-MB-231 cells at a concentration of 10 μM and 20 μM of PTA-1. […] The data shown in FIG. 4 corroborate the induction of apoptosis as the mechanism of cell death.

Jurkat cell line = assay: Differential nuclear staining cytotoxicity assay, Jurkat; type: cell-based; details: Homo sapiens, read-out: CC50 (50% cytotoxic concentration)
Source text: In this illustrative example, PTA-1 can be identified through compound screening by performing differential nuclear staining assay on acute lymphoblastic leukemia CEM T-cell line. Differential nuclear staining assay measures cell viability using Hoechst 33342 fluorescent stain and propidium iodide dyes that stain all nuclei and dead cell nuclei. With reference now to FIG. 2, a table for evaluating cytotoxicity of PTA-1 on different cell lines is depicted in accordance with an illustrative embodiment. In FIG. 2, PTA-1 with chemical structure 100 shown in FIG. 1 is tested to determine cytotoxic activities of PTA-1 on different cell lines. In table 200, column 202 indicates the type of cells that are used to test cytotoxic activities of PTA-1, column 204 indicates the cell line used to test cytotoxic activities of PTA-1, column 206 indicates the CC50 values for different cell lines, and column 208 indicates the length of time that different cell lines are exposed to PTA-1. […] In this illustrative example, a lower CC50 value for a cell line indicates a higher level of PTA-1 cytotoxicity, meaning that PTA-1 is more toxic to the cell line.

[4] = Differential nuclear staining cytotoxicity assay, MDA-MB-231; type: cell-based; details: human; CC50 in MCF10A divided by CC50 in MDA-MB-231; read-out: Selective cytotoxicity index (SCI)
Source text: as §1, §2, §3, §4

MDA-MB-231 cell line = assay: as above; type: cell-based; details: MDA-MB-231, among all cancerous cell lines
Source text: as §1, §2, §3, §4

MDA-MB-231 cell cycle = assay: Cell cycle analysis; type: cell-based
Source text: FIGS. 5A-5D show the percentages of cells that are affected in different phase after treatment of PTA-1.
FIGS. 5A-5D illustrate how PTA-1 alters the progression of the MDA-MB-231 cell cycle. Etoposide is used as a positive control. FIG. 5A illustrates PTA-1 induced DNA fragmentation as denoted in the sub G0/G1 phase.

tubulin = assay: Tubulin polymerization kinetics (absorbance at 340 nm); type: biochemical
Source text: FIG. 9 depicts a graph illustrating tubulin polymerization of cells treated with PTA-1 in accordance with an illustrative embodiment. Graph 900 illustrates the kinetic curves of four different treatments for tubulin polymerization.
In this illustrative example, absorbance is directly correlated with tubulin polymerization. Therefore, if polymerization happens, there is an increase in the absorbance at 340 nm. […] In graph 900 tubulin polymerization can be clearly observed from the increasing absorbance after treatment with PTX. In this example, tubulin polymerization for cells treated with PTX drops immediately after 10 minutes.

[5] = system: A549 cell line for lung cancer; assay: Differential nuclear staining cytotoxicity assay, A549; type: cell-based; details: A549, among all cancerous cell lines
Source text: as §1, §2, §3, §4

[6] = as above; type: cell-based; details: human; CC50 in non-cancerous cells divided by CC50 in A549; read-out: Selective cytotoxicity index (SCI)
Source text: as §1, §2, §3, §4

[7] = system: MCF10A cell line (non-cancerous breast epithelial cells); assay: Differential nuclear staining cytotoxicity assay, MCF10A; type: cell-based; details: MCF10A non-cancerous cell line vs cancerous lines
Source text: as §1, §2, §3, §4

[8] = Differential nuclear staining cytotoxicity assay, NALM6; type: cell-based; details: human; CC50 in non-cancerous cells divided by CC50 in NALM6; read-out: Selective cytotoxicity index (SCI)
Source text: as §1, §2, §3, §4

OO [H2O2, reference compound]
Cell population with phosphatidylserine externalization (MDA-MB-231 cells; positive control): 49.9%

COc1ccc(-c2cnn(CC(=O)Nc3cnn(C)n3)c2)cc1C(F)(F)F [PTA-1, 2-{4-[4-methoxy-3-(trifluoromethyl)phenyl]-1H-pyrazol-1-yl}-N-(2-methyl-2H-1,2,3-triazol-4-yl)acetamide]
Cell population with phosphatidylserine externalization (MDA-MB-231 cells; 10 μM, 24 hours): 59.4% | Cell population with phosphatidylserine externalization (MDA-MB-231 cells; 20 μM, 24 hours): 59.7% | Microfilament structure (phalloidin-Alexa-568 staining) [1]: remained unaltered | Microtubule organization (α-tubulin-Alexa-488 staining) [1]: disrupts the microtubule organization | Sensitivity to PTA-1 (CC50 comparison) [2]: significantly lower sensitivity | Caspase-3 activation ([3]; 10 μM): significantly induced the activation of Caspase 3 | Caspase-3 activation ([3]; 20 μM): significantly induced the activation of Caspase 3 | CC50 (Jurkat cell line): 320 nM | selectivity ratio [4]: 4.73 | Sensitivity to PTA-1 (CC50 comparison) (MDA-MB-231 cell line): least sensitive | Cells in the G2/M phase (MDA-MB-231 cell cycle; 1.25 μM): 53.25% | Cells in the S phase (MDA-MB-231 cell cycle; 1.25 μM): 19.8% | DNA fragmentation (sub G0/G1 phase) vs DMSO and untreated (MDA-MB-231 cell cycle; 1.25 μM): significantly higher rates of DNA fragmentations | Cells in the G2/M phase (MDA-MB-231 cell cycle; 2.5 μM): 71.5% | Cells in the S phase (MDA-MB-231 cell cycle; 2.5 μM): 15.34% | DNA fragmentation (sub G0/G1 phase) vs DMSO and untreated (MDA-MB-231 cell cycle; 2.5 μM): significantly higher rates of DNA fragmentations | Cells in the G2/M phase (MDA-MB-231 cell cycle; 5 μM): 66.47% | Cells in the S phase (MDA-MB-231 cell cycle; 5 μM): 24.6% | DNA fragmentation (sub G0/G1 phase) vs DMSO and untreated (MDA-MB-231 cell cycle; 5 μM): significantly higher rates of DNA fragmentations | Cells in the G0/G1 phase (MDA-MB-231 cell cycle; different concentrations): did not result in a higher percentage of cells in the G0/G1 phase | Absorbance (tubulin polymerization) (tubulin; 340 nm, after 60 minutes of treatment, DMSO 0.3702): 0.3247 | Duration of nucleation phase (absorbance starts increasing) (tubulin; absorbance at 340 nm): four | Kinetic curve of tubulin polymerization compared with DMSO (tubulin; absorbance at 340 nm): never reached the absorbance values of cells treated with DMSO | Time to reach steady state of tubulin polymerization (tubulin; absorbance at 340 nm): 20 min | Sensitivity to PTA-1 (CC50 comparison) [5]: most sensitive | selectivity ratio [6]: 105 | Sensitivity to PTA-1 (CC50 comparison) [7]: significantly lower sensitivity | selectivity ratio [8]: 8.65

CC[C@]1(O)C[C@@H]2CN(CCc3c([nH]c4ccccc34)[C@@](C(=O)OC)(c3cc4c(cc3OC)N(C)[C@H]3[C@@](O)(C(=O)OC)[C@H](OC(C)=O)[C@]5(CC)C=CCN6CC[C@]43[C@@H]65)C2)C1 [Vinblastine, reference compound]
Duration of nucleation phase (absorbance starts increasing) (tubulin; absorbance at 340 nm): four | Kinetic curve of tubulin polymerization compared with DMSO (tubulin; absorbance at 340 nm): never reached the absorbance values of cells treated with DMSO

COc1cc([C@@H]2c3cc4c(cc3[C@@H](O[C@@H]3O[C@@H]5CO[C@@H](C)O[C@H]5[C@H](O)[C@H]3O)[C@H]3COC(=O)[C@H]23)OCO4)cc(OC)c1O [etoposide, reference compound]
Cells in the G2/M phase (MDA-MB-231 cell cycle; positive control): 15.4% | Cells with DNA fragmentation (sub G0/G1 phase) (MDA-MB-231 cell cycle; positive control): 28.6%

CC(=O)O[C@H]1C(=O)[C@@]2(C)[C@H]([C@H](OC(=O)c3ccccc3)[C@]3(O)C[C@H](OC(=O)[C@H](O)[C@@H](NC(=O)c4ccccc4)c4ccccc4)C(C)=C1C3(C)C)[C@]1(OC(C)=O)CO[C@@H]1C[C@@H]2O [paclitaxel, reference compound]
Growth phase of tubulin polymerization (tubulin; absorbance at 340 nm): started immediately | Time after which tubulin polymerization drops (tubulin; absorbance at 340 nm): 10 min
